Read-outs that look alike come from different tables or passages of the source. Non-standard residues stand in square brackets, D forms with d. Residues, ends and D or L forms follow the SMILES beside them. No end group written: not given here.
T1: IL-1 receptor (Homo sapiens, UniProt P14778)
T1 construct: confluent human monocytes, which express the IL-1 receptor; endogenous in cells; host or cells: human monocytes
T1 sequence (P14778 18-569): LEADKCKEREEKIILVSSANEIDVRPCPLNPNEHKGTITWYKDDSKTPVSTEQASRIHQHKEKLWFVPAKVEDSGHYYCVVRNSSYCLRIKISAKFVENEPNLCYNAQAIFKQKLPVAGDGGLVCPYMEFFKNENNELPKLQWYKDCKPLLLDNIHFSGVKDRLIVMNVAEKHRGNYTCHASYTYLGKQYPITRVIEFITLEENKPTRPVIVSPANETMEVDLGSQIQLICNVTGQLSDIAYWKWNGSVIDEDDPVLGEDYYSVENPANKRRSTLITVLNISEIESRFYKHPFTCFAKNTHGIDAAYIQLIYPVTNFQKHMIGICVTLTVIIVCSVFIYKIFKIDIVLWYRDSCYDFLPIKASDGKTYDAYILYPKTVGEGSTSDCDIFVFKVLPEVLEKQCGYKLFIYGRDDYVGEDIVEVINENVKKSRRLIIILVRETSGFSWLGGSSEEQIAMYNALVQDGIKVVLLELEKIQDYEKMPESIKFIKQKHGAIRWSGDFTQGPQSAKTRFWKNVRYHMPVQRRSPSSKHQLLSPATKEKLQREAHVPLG

T2: IL-1 receptor (IL-1R) expressed on human monocytes (human, UniProt P14778 18-569)
T2 sequence (looked up): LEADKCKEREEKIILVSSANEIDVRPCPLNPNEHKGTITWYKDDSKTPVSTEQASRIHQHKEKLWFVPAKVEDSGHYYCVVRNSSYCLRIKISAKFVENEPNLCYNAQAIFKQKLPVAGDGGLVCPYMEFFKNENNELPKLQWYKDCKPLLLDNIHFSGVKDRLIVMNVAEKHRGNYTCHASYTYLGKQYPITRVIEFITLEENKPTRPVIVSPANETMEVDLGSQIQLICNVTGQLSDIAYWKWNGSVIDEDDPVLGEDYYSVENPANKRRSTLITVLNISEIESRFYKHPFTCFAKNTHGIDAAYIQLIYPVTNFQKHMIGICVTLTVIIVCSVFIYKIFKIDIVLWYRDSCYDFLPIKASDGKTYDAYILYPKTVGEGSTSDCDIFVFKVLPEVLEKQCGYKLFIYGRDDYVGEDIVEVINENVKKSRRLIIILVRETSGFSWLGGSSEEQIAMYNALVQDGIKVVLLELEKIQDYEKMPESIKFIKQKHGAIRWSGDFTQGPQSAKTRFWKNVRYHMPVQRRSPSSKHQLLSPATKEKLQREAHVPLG


Experiments:
IL-1 receptor = target: T1, IL-1 receptor; experiment: Radioligand competition binding assay (125I-labeled IL-1α) on human monocytes; details: IL-1 binding antagonism on human monocytes; average of three measurements and standard error
Method: (§1) Radioligand competition binding assays were performed in 96-well plates containing confluent human monocytes, which express the IL-1 receptor. Wells were washed three times with binding buffer, and binding buffer was placed in each well. Peptides were resuspended in dimethyl sulfoxide at 20 mM and diluted in binding buffer to the desired starting concentration. Using a Beckman robotic system, five 3-fold dilutions were prepared, and peptide solution was transferred to duplicate receptor-containing wells. To each well, radioactive ^125Iodine-labeled IL-Ia (Amersham) was added to a final concentration of 40 pM, and the plates were placed on a shaking platform at 4° C. for 2 hr. Plates were washed with PBS using a plate washer, and bound ^125I-labeled IL-la was eluted for 10 min with 0.1 M NaOH and counted in a gamma counter. IC50 values were determined by fitting the data to a two-parameter logistic equation. In all cases, nonspecific binding was determined by the addition of 3 μM of recombinant IL-Ia.

[1] = test system: IL-1 stimulation of IL-8 in human skin fibroblasts; experiment: Inhibition of IL-1 induced IL-8 in human fibroblasts; format: cell-based; details: inhibition of IL-1 stimulation of IL-8 in human skin fibroblasts; average of three measurements and standard error; read-out: Binding (IC50 nM)
Method: Inhibition of IL-1 induced IL-8 in human fibroblasts was determined using normal human dermal fibroblast cells cultured in DMEM with 10% fetal calf serum in 48-well plates.
Twenty-four hours before initiation of the experiment, the medium was changed to DMEM with 0.2% fetal calf serum. Each peptide was added to confluent cells, which were then pulsed for 30 min with rIL-I,B (which was obtained from R & D Systems) at 50 pg/ml. The cells were washed four times with PBS, and fresh DMEM/0.2% fetal calf serum was added to each well. After 5 hr of incubation, the culture media were collected and analyzed by ELISA for IL-8 (which was obtained from R & D Systems). Maximal activation, with IL-1 only, was 2530±13 pg/ml of IL-8. Nonspecific activation, determined in the presence of 1000-fold excess IL-1Ra, was 30±9 pg/ml of IL-8 (n=3).

[2] = Solubility of peptide under different solvent conditions; format: physicochemical; details: 30 min room temperature
Method: 100 mg of each peptide was added to 100 ml total of water plus the solvents, and the solution was gently agitated for 30 min at room temperature.

[3] = Stability of peptide once dissolved in solution (1 month); format: physicochemical; details: 1 mg in 5 ml water, bicarbonate and benzyl alcohol (19, 4) or methanol (13, 14); for Stability of peptide once dissolved in solution (at 1 month), Room Temp (month): room temperature
Method: Each of the peptides having the sequences 13, 14, 19 and 4 were tested to determine their stability in a solution containing (preferred composition above) water, bicarbonate and either benzyl alcohol (peptide 19 and 4) or methanol (peptide 13 and 14). Each of the peptides were held for a period of 1 month at either 4° C. or at room temperature.
1 mg of each peptide was added to the water, bicarbonate and either benzyl alcohol or methanol solution and the solution was gently agitated for 1 hour at room temperature before standing at either 4° C. or at room temperature for a period of 1 month.

[4] = Human plasma stability trials; format: in vitro ADME; details: 37° C., 12 hours, read-out: ½ Life human plasma
Method: 1 mg of each peptide was added to the plasma and the solution was gently agitated for 2 minutes at room temperature before standing at 37° C. for a period of 12 hours.

[5] = test system: thoroughbred having equine laminitis; experiment: Effect of peptides on equine laminitis (Obel Lameness Grades); format: in vivo, horse; details: for Change in Obel Score: 1 mg intravenously, before vs 24 hours after injection, most negative = greatest improvement; for Duration (days) of effect on laminitis: single 1 mg intravenous, averaged, report by veterinarians
Method: Each of the peptides having the sequences 13, 14, 19 and 4 were also tested to determine their effect on equine laminitis. Each peptide was administered intravenously to a thoroughbred having equine laminitis. The peptides were prepared as compositions containing 1 mg of peptide dissolved in 5 ml of a solution comprising water, bicarbonate and either benzyl alcohol or methanol. The effect of the peptides on equine laminitis was judged by the Obel Lameness Grades, which is a system of rating degrees of lameness resulting from laminitis. […] Obel Grade III horses do resist having a foreleg lifted, and are reluctant to walk. Obel Grade IV horses will walk only if forced. The Obel Score for each of the horses was measured before administration of the peptide and 24 hours after injection of the peptide. […] The effect in reducing laminitis which was caused by one single injection of the peptides on laminitis was short-lived. Therefore, the duration of the effect of the peptides in reducing laminitis was further assessed by attending veterinarians.

[6] = target: IL-1 receptor (IL-1R) expressed on human monocytes (human) (UniProt P14778); experiment: cell-based or functional assay
[7] = target: T2, IL-1 receptor (IL-1R) expressed on …; experiment: cell-based or functional assay
[8] = target: T2, IL-1 receptor (IL-1R) expressed on …; experiment: radioligand competition, 40 pM 125I-IL-1α on confluent human monocytes
Method: as §1, with “¹²⁵Iodine-labeled” for “^125Iodine-labeled”, “¹²⁵I-labeled” for “^125I-labeled”, “IC₅₀” for “IC50”

[9] = benzyl alcohol (0.1-1%) in water, benzyl alcohol (0.1-1%), 100 mg peptide in 100 ml, read-out: Solubility: Benzyl Alcohol
[10] = hydrochloric acid (0.1-1%) in water, hydrochloric acid (0.1-1%), 100 mg peptide in 100 ml water plus solvent, read-out: Solubility: Acid
[11] = methanol (1-10%) in water, methanol (1-10%), 100 mg peptide in 100 ml, read-out: Solubility: Methanol
[12] = sodium bicarbonate (0.1-1%) in water, sodium bicarbonate (0.1-1%), 100 mg peptide in 100 ml, read-out: Solubility: Base

| Molecule | IC50 (IL-1 receptor) | IC50 [1] | solubility at 30 min [2, 9] | solubility at 30 min [2, 10] | solubility at 30 min [2, 11] | solubility at 30 min [2, 12] | Stability of peptide once dissolved in solution (at 1 month), 4° C. (month) [3] | Stability of peptide once dissolved in solution (at 1 month), Room Temp (month) [3] | half-life [4] | Change in Obel Score [5] | Duration (days) of effect on laminitis [5] | IC50, in vitro inhibition of IL-1 stimulation of IL-8 in human skin fibroblasts (rIL-1β 50 pg/ml, IL-8 ELISA) [6] | IC50, in vitro inhibition of IL-1 stimulation of IL-8 in human skin fibroblasts (rIL-1β 50 pg/ml, IL-8 ELISA) [7] | IC50 [8] |
| --- | --- | --- | --- | --- | --- | --- | --- | --- | --- | --- | --- | --- | --- | --- |
| CC(=O)N[C@@H](CCC(=O)O)C(=O)N[C@H](C(=O)N1CCC[C@H]1C(=O)N[C@@H](Cc1ccccc1)C(=O)N[C@H](C(=O)N[C@@H](Cc1c[nH]c2ccccc12)C(=O)N[C@@H](CCC(=O)O)C(=O)N[C@@H](CCC(=O)O)C(=O)N[C@@H](CO)C(=O)N[C@@H](CC(N)=O)C(=O)N[C@@H](C)C(=O)N[C@@H](Cc1ccc(O)cc1)C(=O)N[C@@H](Cc1ccc(O)cc1)C(=O)N[C@@H](Cc1c[nH]c2ccccc12)C(=O)N[C@@H](CCC(N)=O)C(=O)N1CCC[C@H]1C(=O)N[C@@H](Cc1ccc(O)cc1)C(=O)N[C@@H](C)C(=O)N[C@@H](CC(C)C)C(=O)N1CCC[C@H]1C(=O)N[C@@H](CC(C)C)C(=O)O)[C@@H](C)O)[C@@H](C)O [SEQ ID NO. 13, reference compound] (Ac-ETPFTWEESNAYYWQPYALPL-OH; C-terminus assumed) | 11 nM | 11 nM | < 1000 µg/mL | < 1000 µg/mL | > 1000 µg/mL | < 1000 µg/mL | 21% | 1% | 46 min | −0.5 | 1 days | – | – | – |
| CC(=O)N[C@H](CC(C)C)C(=O)N1CCC[C@@H]1C(=O)N[C@H](CC(C)C)C(=O)N[C@H](C)C(=O)N[C@H](Cc1ccc(O)cc1)C(=O)N1CCC[C@@H]1C(=O)N[C@H](CCC(N)=O)C(=O)N[C@H](Cc1c[nH]c2ccccc12)C(=O)N[C@H](Cc1ccc(O)cc1)C(=O)N[C@H](Cc1ccc(O)cc1)C(=O)N[C@H](C)C(=O)N[C@H](CC(N)=O)C(=O)N[C@H](CO)C(=O)N[C@H](CCC(=O)O)C(=O)N[C@H](CCC(=O)O)C(=O)N[C@H](Cc1c[nH]c2ccccc12)C(=O)N[C@@H](C(=O)N[C@H](Cc1ccccc1)C(=O)N1CCC[C@@H]1C(=O)N[C@@H](C(=O)N[C@H](CCC(=O)O)C(=O)O)[C@H](C)O)[C@H](C)O [SEQ ID NO. 14] (Ac-[dL][dP][dL][dA][dY][dP][dQ][dW][dY][dY][dA][dN][dS][dE][dE][dW][dT][dF][dP][dT][dE]-OH; C-terminus assumed) | 9.2 nM | 11 nM | < 1000 µg/mL | < 1000 µg/mL | > 1000 µg/mL | < 1000 µg/mL | 78% | 18% | 333 min | −1.1 | 2 days | – | – | – |
| CC(=O)N[C@@H](Cc1ccccc1)C(=O)N[C@@H](CCC(=O)O)C(=O)N[C@@H](Cc1c[nH]c2ccccc12)C(=O)N[C@H](C(=O)N1CCC[C@H]1C(=O)NCC(=O)N[C@@H](Cc1ccc(O)cc1)C(=O)N[C@@H](Cc1c[nH]c2ccccc12)C(=O)N[C@@H](CCC(N)=O)C(=O)N1CCC[C@H]1C(=O)N[C@@H](Cc1ccc(O)cc1)C(=O)N[C@@H](C)C(=O)N[C@@H](CC(C)C)C(=O)N1CCC[C@H]1C(=O)N[C@@H](CC(C)C)C(=O)O)[C@@H](C)O [SEQ ID NO. 19, Ac FEWTPGYWQPYALPL, reference compound] (Ac-FEWTPGYWQPYALPL-OH; C-terminus assumed) | – | 10 nM | > 1000 µg/mL | < 1000 µg/mL | – | < 1000 µg/mL | 95% | 48% | 49 min | −2.1 | 2 days | – | – | – |
| Ac-[dL][dP][dL][dA][dY][dP][dQ][dW][dY][dY][dA][dN][dS][dE][dE][dW][dT][dF][dP][dT][dE] [peptide of SEQ ID NO: 14 (Ac-…, D-amino acids)] | – | – | – | – | – | – | – | – | – | – | – | 11 nM | – | – |
| Ac-DGYDRWRQSGERYWQPYALPL (also called peptide 20) [peptide of SEQ ID NO: 20 (Ac-DGYDRWRQSGERYWQPYALPL)] | – | – | – | – | – | – | – | – | – | – | – | – | 19 nM | 8.1 nM |
| Ac-FTWEESNAYYWQPYALPL (also called peptide 15) [peptide of SEQ ID NO: 15 (Ac-FTWEESNAYYWQPYALPL)] | – | – | – | – | – | – | – | – | – | – | – | – | 16 nM | 20 nM |
| Ac-TANVSSFEWTPGYWQPYALPL (also called peptide 17) [peptide of SEQ ID NO: 17 (Ac-TANVSSFEWTPGYWQPYALPL)] | – | – | – | – | – | – | – | – | – | – | – | – | 76 nM | 7.6 nM |
| Ac-FEWTPGYWQPYALPL (also called peptide 19) [peptide of SEQ ID NO: 19 (Ac FEWTPGYWQPYALPL)] | – | – | – | – | – | – | – | – | – | – | – | – | 10 nM | 7.1 nM |

Reference: patent US20170022258A1, “PEPTIDES FOR USE IN THE TREATMENT OF IL-1 RELATED DISEASES AND CONDITIONS” (C4M PHARMACEUTICALS PTY LTD., priority 2011, published 2017)
